Reference: patent publication US20210198277A1, “AMINE-SUBSTITUTED ARYL OR HETEROARYL COMPOUNDS” (Epizyme, Inc., priority 2016, published 2021)

Target: T1, EHMT2 (Homo sapiens, UniProt Q96KQ7)
T1 construct: host or cells: MDA-MB-231
T1 sequence (Q96KQ7 1-1210): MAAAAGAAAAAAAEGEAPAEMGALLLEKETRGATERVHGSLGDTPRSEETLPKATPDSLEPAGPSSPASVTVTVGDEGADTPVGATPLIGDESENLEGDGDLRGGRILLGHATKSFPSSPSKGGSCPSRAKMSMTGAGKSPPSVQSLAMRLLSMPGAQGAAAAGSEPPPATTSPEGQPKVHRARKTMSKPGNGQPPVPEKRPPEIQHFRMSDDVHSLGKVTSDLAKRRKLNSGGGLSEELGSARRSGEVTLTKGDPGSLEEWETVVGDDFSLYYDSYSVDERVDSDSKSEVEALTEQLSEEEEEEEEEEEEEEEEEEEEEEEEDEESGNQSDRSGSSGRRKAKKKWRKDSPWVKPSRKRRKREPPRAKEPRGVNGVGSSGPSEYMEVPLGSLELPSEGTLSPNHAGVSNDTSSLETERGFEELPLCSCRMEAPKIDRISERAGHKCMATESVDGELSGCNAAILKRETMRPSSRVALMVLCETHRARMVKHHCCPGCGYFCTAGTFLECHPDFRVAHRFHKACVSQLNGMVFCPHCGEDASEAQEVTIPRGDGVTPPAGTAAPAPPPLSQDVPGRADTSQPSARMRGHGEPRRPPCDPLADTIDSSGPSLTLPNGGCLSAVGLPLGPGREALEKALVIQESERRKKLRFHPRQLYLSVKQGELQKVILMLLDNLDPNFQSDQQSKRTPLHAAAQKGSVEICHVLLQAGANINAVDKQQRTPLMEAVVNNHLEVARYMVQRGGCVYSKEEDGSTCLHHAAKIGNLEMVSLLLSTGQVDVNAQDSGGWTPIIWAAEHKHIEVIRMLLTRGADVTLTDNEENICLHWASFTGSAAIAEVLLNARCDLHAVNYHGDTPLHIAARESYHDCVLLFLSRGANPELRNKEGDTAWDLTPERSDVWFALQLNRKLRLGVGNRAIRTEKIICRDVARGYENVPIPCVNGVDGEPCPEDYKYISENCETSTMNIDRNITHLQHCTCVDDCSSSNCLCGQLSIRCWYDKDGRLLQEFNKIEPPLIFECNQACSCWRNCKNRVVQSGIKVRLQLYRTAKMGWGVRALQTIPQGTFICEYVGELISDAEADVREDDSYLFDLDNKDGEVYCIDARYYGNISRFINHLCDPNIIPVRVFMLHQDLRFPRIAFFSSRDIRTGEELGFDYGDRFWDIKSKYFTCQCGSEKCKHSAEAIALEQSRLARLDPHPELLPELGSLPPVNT
Test: MDA-MB-231 H3K9me2 in-cell Western assay (EHMT2 ICW)
Assay type: cell-based
Details: Table VI; read-out: EHMT2 ICW IC50
In short: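 MDA-MB-231 cells (3,000/well) seeded onto compound, kept 30 min at room temperature, then 48 h at 37 °C, 5% CO2. IC50 from triplicate wells, four-parameter fit.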

Row | Compound | IC50
1 | COc1cc2c(C3CCOCC3)cc(C)nc2cc1OCCCN1CCCC1 [Compound 668] | 100 to 1000 nM
2 | COc1cc2c(C3CCN(C(C)C)CC3)cc(C)nc2nc1OCCCN1CCCC1 [Compound 670] | > 10000 nM
3 | CCN1CC[C@@H](COc2cc3nc(C)nc(C4CCN(C(C)C)CC4)c3cc2OC)C1 [Compound 674] | > 10000 nM
4 | CNc1cc(C)c2cc(OC)c(OCCCN3CCCC3)cc2n1 [Compound 736] | < 100 nM
5 | CNc1nc(C)c2cc(OC)c(OCCCN3CCCC3)cc2n1 [Compound 737] | > 10000 nM
6 | COc1cc2c(C)cc(N3CCNCC3)nc2cc1OCCCN1CCCC1 [Compound 738] | 1000 to 10000 nM
7 | COc1cc2c(C)nc(N3CCNCC3)nc2cc1OCCCN1CCCC1 [Compound 739] | > 10000 nM
8 | CNc1nc(C2CCN(CCOC)CC2)c2cc(OC)c(OCCCN3CCCC3)cc2n1 [Compound 740] | 1000 to 10000 nM
9 | COc1cc2c(C3CCN(C)CC3)cc(C)nc2cc1OCCCN1CC[C@H](F)C1 [Compound 741] | 1000 to 10000 nM
10 | COc1cc2c(C3CCCN(C)C3)nc(C)nc2cc1OCCCN1CCCC1 (stereo not shown) [Compound 743] | > 10000 nM
11 | COc1cc2c(C3CCN(C)C3)nc(C)nc2cc1OCCCN1CCCC1 (stereo not shown) [Compound 745] | > 10000 nM
12 | CNc1ccnc(Nc2ccc(OC)c(CNC[C@@H]3CCCN3)c2)n1 [Compound 1019] | > 10000 nM
13 | CNc1ccnc(Nc2ccc(OC)c(CNC[C@H]3CCCN3)c2)n1 [Compound 1020] | > 10000 nM
14 | CNc1ccnc(Nc2ccc(OC)c(OCC[C@H]3CCCN3)c2)n1 [Compound 1022] | > 10000 nM
15 | CNc1cc(C)nc(Nc2ccc(OC)c(CNCCN3CC[C@@H](F)C3)c2)n1 [Compound 1030] | 100 to 1000 nM

Continued, values first:

Row | IC50 | Compound
16 | > 10000 nM | CCN1CC(COc2cc3nc(C)nc(C4CCN(C(C)C)CC4)c3cc2OC)C1 [Compound 665]
17 | 100 to 1000 nM | CCN1CC[C@@H](COc2cc(Nc3nc(C)cc(NCC4CCOCC4)n3)ccc2OC)C1 [Compound 667]
18 | 100 to 1000 nM | CCc1cc(NC)nc(Nc2ccc(OC)c(OC[C@@H]3CCN(CC)C3)c2)n1 [Compound 671]
19 | 100 to 1000 nM | CCN1CC[C@@H](COc2cc(Nc3nc(NC)cc(C(C)C)n3)ccc2OC)C1 [Compound 672]
20 | > 10000 nM | CCN1CC[C@@H](COc2cc3nc(C)nc(C4CCN(C)CC4)c3cc2OC)C1 [Compound 673]
21 | > 10000 nM | CNc1cc(C)nc(Nc2cnc(OC)c(O)c2)n1 [Compound 676]
22 | > 10000 nM | COc1cc2c(C3CCN(C)CC3)cc(-c3cn[nH]c3)nc2cc1OCCCN1CCCC1 [Compound 677]
23 | 1000 to 10000 nM | COc1cc2c(C3CCN(C)CC3)cc(-c3cc[nH]n3)nc2cc1OCCCN1CCCC1 [Compound 678]
24 | 1000 to 10000 nM | COc1cc2c(C3CCOCC3)cc(-c3cn[nH]c3)nc2cc1OCCCN1CCCC1 [Compound 679]
25 | > 10000 nM | CNCCN(C)Cc1cc(Nc2nc(C)cc(NC)n2)ccc1OC [Compound 680]
26 | 1000 to 10000 nM | COc1cc2c(C3CCN(C)CC3)nc(-c3cn[nH]c3)nc2cc1OCCCN1CCCC1 [Compound 681]
27 | 100 to 1000 nM | COCCN1CCC(c2cc(C)nc3cc(OCCCN4CCCC4)c(OC)cc23)CC1 [Compound 682]
28 | > 10000 nM | COc1cnc(Nc2ccc3[nH]nnc3c2)cc1OCCCN1CCCC1 [Compound 686]
29 | 1000 to 10000 nM | CCN1CC([C@@H](C)Oc2cc(Nc3nc(C)cc(NC)n3)ccc2OC)C1 [Compound 687]
30 | 1000 to 10000 nM | COc1cc2c(C3CCN(C)CC3)cc(C)nc2cc1OCCCN1CC[C@@H](F)C1 [Compound 742]
31 | > 10000 nM | CNc1nc(C2CCCN(C)C2)c2cc(OC)c(OCCCN3CCCC3)cc2n1 (stereo not shown) [Compound 746]
32 | 1000 to 10000 nM | CNc1ccnc(Nc2ccc(OC)c(OCC[C@@H]3CCCN3)c2)n1 [Compound 1021]
33 | 100 to 1000 nM | CNc1cc(C)c2cc(OC)c(OC[C@H](O)CN3CCC3)cc2n1 [Compound 1028]
34 | 100 to 1000 nM | CNc1cc(C)nc(Nc2cnc(OC)c(CNCCN3CCCC3)c2)n1 [Compound 1031]
35 | 100 to 1000 nM | CNc1ccnc(Nc2ccc(OC)c(CNCCN3CCCC3)c2)n1 [Compound 1032]
36 | 100 to 1000 nM | CNc1ccnc(Nc2ccc(OC)c(CNCCN3CCC3)c2)n1 [Compound 1033]
37 | 1000 to 10000 nM | CNCCNCc1cc(Nc2nccc(NC)n2)ccc1OC [Compound 1034]
